Where a name gives a salt, the structure may show the parent alone.
Experiments:
[1] = Humidity chamber hygroscopicity study (salt solution chambers, visual inspection); format: physicochemical; parameters: key to Observations/Time (hr): FF—Free flowing powder; D—Complete deliquescence of sample observed; CC—Colour change of sample observed; settings: for XRPD after humidity chamber (compared with XRPD pattern of sponsor lot) / HPLC Assay (% Area Purity) after humidity chamber: up to 120 hr; for HPLC Assay (% Area Purity) after humidity chamber: initial 99.4
Description: Further characterization of the hygroscopicity of the mesylate salt was performed using several humidity chambers to cover a range of humidity from 75, 88 to 95% RH. The 75, 88, and 95% RH chambers were prepared with NaCl, BaCl2.2H2O, and Na2HPO4.12 H2O respectively and were equilibrated for 48 hours prior to introducing the samples. Samples were placed into aluminum pans and monitored by visual inspection for up to five days. Table 3 summarizes the observations at 0, 3, 5, 24, 48, 72, 96 and 120 hour time points.
Moisture sorption studies conducted at ambient temperature utilizing salt solution humidity chambers were conducted to evaluate solid stability by visual inspection.

[2] = Slurry study (acetone, DI water); format: physicochemical; settings: Acetone slurry/RT, one and five days
Description: Slurry experiments were performed using acetone and DI water on KX2-391.MSA, Form A. Each vial was filled with approximately 30 mg of KX2-391.MSA, Form A and 0.5 and 1 mL of corresponding solvent, followed by stirring at room temperature for one and five days. The obtained solids were isolated by filtration, dried under vacuum at room temperature, and analyzed by HPLC and XRPD. The initial purity of KX2-391.MSA was 99.4%.

Thermal stress = format: physicochemical; settings: 60° C., one week
Description: Thermal stress experiments were performed on KX2-391.MSA, Form A. Each 1-dram amber vial was filled with approximately 20 mg of KX2-391.MSA, Form A capped and stored in a vacuum over at 60° C. for one week. The resulting solids were analyzed by XRPD and HPLC.

[3] = Threshold solubility of salt screen 96 well plate; settings: salt screen well: 1 Equivalent of Acid, DI water
Description: Following each addition, the plate was shaken to encourage mixing for at least 5 minutes prior to evaluation.

[4] = Aqueous solubility study in buffers at 37° C.; format: physicochemical; settings: overnight at 37° C.; for solubility: thermodynamic from solid
Description: The solubility of KX2-391 mesylate, Form A was determined in SGF (pH 2), acetate buffer (pH 4.5), and phosphate buffer (pH 7.2). Slurries of KX2-391 mesylate in the buffer solution were allowed to equilibrate overnight at 37° C. The solids were then isolated and the supernatant was diluted and analyzed by HPLC. The response of the supernatant was then compared against a calibration curve to determine the solubility.

[5] = Stability studies, 2 weeks at elevated temperature and/or relative humidity; format: physicochemical; settings: for Form After 2 Weeks (XRPD): initial Form A; for Time to deliquescence: 95% RH, mesylate
Description: Stability studies were performed on KX2-391.MSA obtained in accordance with the process of the present invention (Example 4) using the conditions listed in Table 4 to determine the effects of exposure to elevated temperature and/or relative humidity on the crystalline form of KX2-391.MSA, Form A. After 2 weeks, the samples were analyzed by XRPD and HPLC to determine if any form change or degradation had occurred.

[6] = Moisture-sorption analysis (Hiden IGAsorp); format: physicochemical; settings: for Moisture Sorption Wt % Water @ 90% RH: mesylate
Description: Moisture-sorption experiments were performed using a Hiden IGAsorp Moisture Sorption instrument on KX2-391.MSA obtained in accordance with the process of the present invention (Example 4). First, the sample was dried at 0% Relative Humidity (RH) and 25° C. until an equilibrium weight was reached or for a maximum of four hours. The sample was then subjected to an isothermal (25° C.) adsorption scan from 10 to 90% RH in steps of 10%. The sample was allowed to equilibrate to an asymptotic weight at each point for a maximum of four hours. Following adsorption, a desorption scan from 85 to 0% RH (at 25° C.) was run in steps of −10% again allowing a maximum of four hours for equilibration to an asymptotic weight. The sample was then dried for one hour at 80° C. and the resulting solid analyzed by XRPD. […] FIG. 10 depicts percent change of water content as a function of relative humidity for KX2-391.MSA, Form A.
Moisture-sorption experiments were performed using a Hiden IGAsorp Moisture Sorption Instrument on KX2-391.2HCl obtained in accordance with the process of the present invention (Example 3). First, the sample was dried at 0% Relative Humidity (RH) and 25° C. until an equilibrium weight was reached or for a maximum of four hours. The sample was then subjected to an isothermal (25° C.) adsorption scan from 10 to 90% RH in steps of 10%. The sample was allowed to equilibrate to an asymptotic weight at each point for a maximum of four hours. Following adsorption, a desorption scan from 85 to 0% RH (at 25° C.) was run in steps of −10% again allowing a maximum of four hours for equilibration to an asymptotic weight. The sample was then dried for one hour at 80° C. and the resulting solid analyzed by XRPD.

[7] = Pressure and grinding studies; format: physicochemical
[8] = 40° C./75% RH, accelerated stability chamber

For `O=C(Cc1ccc(-c2ccc(OCCN3CCOCC3)cc2)cn1)NCc1ccccc1` [KX2-391.MSA, 2-(5-(4-(2-morpholinoethoxy)phenyl)pyridine-2-yl)-N-benzylacetamide mesylate], the “Observations/Time (hr)” value ([1]; 75% RH (NaCl) chamber, 0 hr) was “FF”, the “Observations/Time (hr)” value ([1]; 75% RH (NaCl) chamber, 3 hr) was “FF” and the “Observations/Time (hr)” value ([1]; 75% RH (NaCl) chamber, 5 hr) was “FF”. The “Observations/Time (hr)” value ([1]; 75% RH (NaCl) chamber, 24 hr) was “FF”, the “Observations/Time (hr)” value ([1]; 75% RH (NaCl) chamber, 48 hr) was “FF” and the “Observations/Time (hr)” value ([1]; 75% RH (NaCl) chamber, 72 hr) was “FF”. For the same molecule, the “Observations/Time (hr)” value ([1]; 75% RH (NaCl) chamber, 96 hr) was “FF”, the “Observations/Time (hr)” value ([1]; 75% RH (NaCl) chamber, 120 hr) was “FF” and the “XRPD after humidity chamber (compared with XRPD pattern of sponsor lot)” value ([1]; 75% RH (NaCl) chamber) was “Consistent”. The “HPLC Assay (% Area Purity) after humidity chamber” value ([1]; 75% RH (NaCl) chamber) was 99.4 % Area Purity, the “stability in humidity chamber (deliquescence, decomposition by HPLC)” value ([1]; 75% RH, up to five days) was “stable” and the “Observations/Time (hr)” value ([1]; 88% RH (BaCl2•2H2O) chamber, 0 hr) was “FF”. The “Observations/Time (hr)” value ([1]; 88% RH (BaCl2•2H2O) chamber, 3 hr) was “CC”, the “Observations/Time (hr)” value ([1]; 88% RH (BaCl2•2H2O) chamber, 5 hr) was “CC” and the “Observations/Time (hr)” value ([1]; 88% RH (BaCl2•2H2O) chamber, 24 hr) was “CC”. The “Observations/Time (hr)” value ([1]; 88% RH (BaCl2•2H2O) chamber, 48 hr) was “CC”, the “Observations/Time (hr)” value ([1]; 88% RH (BaCl2•2H2O) chamber, 72 hr) was “CC” and the “Observations/Time (hr)” value ([1]; 88% RH (BaCl2•2H2O) chamber, 96 hr) was “CC”. For the same molecule, the “Observations/Time (hr)” value ([1]; 88% RH (BaCl2•2H2O) chamber, 120 hr) was “CC”, the “XRPD after humidity chamber (compared with XRPD pattern of sponsor lot)” value ([1]; 88% RH (BaCl2•2H2O) chamber) was “Consistent” and the “HPLC Assay (% Area Purity) after humidity chamber” value ([1]; 88% RH (BaCl2•2H2O) chamber) was 89.3 % Area Purity. For the same molecule, the “colour of material after exposure” value ([1]; 88% RH, up to five days) was “darker color yellow”, the “degradation by HPLC” value ([1]; 88% RH, up to five days) was “roughly 10 % area” and the “deliquescence on exposure to high humidity” value ([1]; 95% RH) was “deliquesce within three hours”. For the same molecule, the “Observations/Time (hr)” value ([1]; 95% RH (Na2HPO4•12H2O) chamber, 0 hr) was “FF”, the “Observations/Time (hr)” value ([1]; 95% RH (Na2HPO4•12H2O) chamber, 3 hr) was “D” and the “Observations/Time (hr)” value ([1]; 95% RH (Na2HPO4•12H2O) chamber, 5 hr) was “D”. The “Observations/Time (hr)” value ([1]; 95% RH (Na2HPO4•12H2O) chamber, 24 hr) was “D”, the “Observations/Time (hr)” value ([1]; 95% RH (Na2HPO4•12H2O) chamber, 48 hr) was “D” and the “Observations/Time (hr)” value ([1]; 95% RH (Na2HPO4•12H2O) chamber, 72 hr) was “D”. The “Observations/Time (hr)” value ([1]; 95% RH (Na2HPO4•12H2O) chamber, 96 hr) was “D”, the “Observations/Time (hr)” value ([1]; 95% RH (Na2HPO4•12H2O) chamber, 120 hr) was “D” and the “XRPD of solid after slurry” value [2] was “consistent with the pattern of the initial KX2-391.MSA, Form A”. The “HPLC purity after slurry” value ([2]; initial 99.4%) was 99.3%, the “HPLC purity after thermal stress” value (Thermal stress) was 99.3% and the “XRPD of solid after thermal stress” value (Thermal stress) was “consistent with the pattern of the initial KX2-391.MSA, Form A”. For the same molecule, the Threshold solubility rank ([3]; Acetone) was 1, the Threshold solubility rank ([3]; Dioxane) was 1 and the Threshold solubility rank ([3]; THF) was 1. The pH after slurry ([4]; SGF (pH 2.0)) was 4.5, the pH after slurry ([4]; acetate (pH 4.5)) was 4.4 and the solubility ([4]; acetate buffer, aqueous buffer, acetate (pH 4.5)) was 737 mg/mL. For the same molecule, the pH after slurry ([4]; phosphate (pH 7.2)) was 4.3, the solubility ([4]; phosphate buffer, aqueous buffer, phosphate (pH 7.2)) was 150 mg/mL and the solubility ([4]; simulated gastric fluid, SGF (pH 2.0)) was 700 mg/mL. The “stability of crystalline form after exposure to the accelerated stability conditions” value ([5]; 2 weeks, conditions of Table 4) was “stable crystalline form”, the “HPLC Purity (AUC) after 2 weeks” value [5, 8] was greater than 99% and the “Form After 2 Weeks (XRPD)” value [5, 8] was “Form A”. For the same molecule, the “HPLC Purity (AUC) after 2 weeks” value ([5]; 51% RH, saturated salt chamber) was greater than 99%, the “Form After 2 Weeks (XRPD)” value ([5]; 51% RH, saturated salt chamber) was “Form A” and the “HPLC Purity (AUC) after 2 weeks” value ([5]; 60° C./ambient humidity, oven) was greater than 99%. The “Form After 2 Weeks (XRPD)” value ([5]; 60° C./ambient humidity, oven) was “Form A”, the “HPLC Purity (AUC) after 2 weeks” value ([5]; 75% RH, saturated salt chamber) was greater than 99% and the “Form After 2 Weeks (XRPD)” value ([5]; 75% RH, saturated salt chamber) was “Form A”. For the same molecule, the “HPLC Purity (AUC) after 2 weeks” value ([5]; 88% RH, saturated salt chamber) was greater than 99%, the “Form After 2 Weeks (XRPD)” value ([5]; 88% RH, saturated salt chamber) was “Form A” and the Time to deliquescence ([5]; saturated salt chamber, listed as KX2-391-MSA) was “quesced <16 hrs”. For the same molecule, the Time to deliquescence ([5]; saturated salt chamber) was “less than 16 hrs”, the “hygroscopicity by moisture sorption analysis” value ([6]; 25° C., adsorption scan 10 to 90% RH) was “slightly-hygroscopic” and the “water absorbed at 60% RH” value ([6]; 60% RH, 25° C.) was 1.1 wt %. For the same molecule, the “Moisture Sorption Wt % Water @ 90% RH” value ([6]; 25° C., listed as MSA) was 5.7 wt %, the “Moisture Sorption Wt % Water @ 90% RH” value ([6]; 25° C.) was 5.7 wt % and the “XRPD pattern of material resulting from the moisture sorption experiment” value ([6]; after adsorption/desorption scans and drying one hour at 80° C.) was “consistent with the starting form”. The “effect of physical stress on the crystalline form” value [7] was “No change in crystalline form was observed”.
